# A melting point compilation (Tetko et al.; mined from patent text by program, amines drawn as free bases though some values may be those of a salt)
row,melting point [°C],Compound
1,192 to 194,CC(=O)Oc1ccc2c(c1)COc1c-2cc(Br)c2cc(OC(C)=O)ccc12
2,> 270,N#CNC(=S)Nc1ccc(F)cc1
3,79 to 81,CC(ON(C(C)(C)CO)C(C)(C)CO)c1ccccc1 (centres undefined)
4,110 to 114,Cn1c(-c2ccc(-c3cccs3)cc2)cnc1[C@H](Cc1ccccn1)N(C=O)c1cc2cc(Cl)ccc2o1
5,205,CC(=O)OC1CSC(Oc2cccnc2-c2cncnc2)C(OC(C)=O)C1OC(C)=O (centres undefined)
6,120 to 122,O=[N+]([O-])c1cc(CSC2OC(CO)C(OC3OC4COC(c5ccccc5)OC4C(O)C3O)C(O)C2O)ccc1Cl (centres undefined)
7,170,CC(=O)c1cccc(NC(=O)NCC(=O)N(CC(=O)N(C)c2ccccc2)c2ccccc2)c1
8,172 to 175,COC(=O)C1(C)Cc2c([nH]c3ccc(OC)cc23)C(c2ccccc2)N1 (centres undefined)
9,71 to 74,CN1C(=O)N(C[C@@H]2COC(=O)[C@@H]2CC2CCCC2)C(=O)C1(C)C (racemic)
10,192 to 193,Cc1nsc2nc3ccccc3n12
11,56 to 57,OC(CCCl)c1ccccc1 (centres undefined)
12,127 to 129,CC(CC(=O)O)C(=O)c1ccc(N2CCOCC2)c([N+](=O)[O-])c1 (centres undefined)
13,178 to 180,COc1ccccc1NC(=O)Nc1nc(Oc2ccc3ccccc3c2)nc(N(C)CCC(=O)O)n1
14,206 to 208,COC(=O)c1cc2c(Nc3ncccn3)cccc2s1
15,105 to 107,CCOC(=O)CCCCOc1ccc(OC)c(OC)c1C=O
16,133 to 142,CC(C)(C)CC(C)(C)n1scc(Br)c1=O
17,170,Cc1cc(O)c(SCc2cccc3ccccc23)c(=O)o1
18,92 to 96,Cc1ccc(C(Cn2ccnc2)C(=O)c2ccc(Cl)cc2Cl)cc1 (centres undefined)
19,208 to 210,CCC1(Cl)C(=O)c2c(cc(OCC(=O)O)c(Cl)c2Cl)C1C (centres undefined)
20,115,COc1cc2c(cc1CCNC(=O)Cc1ccc(OC)c(OC)c1)CCC2
21,143 to 146,O=[N+]([O-])C=C1SCCCN1Cc1cccnc1
22,223 to 225,O=C1CCC(N2C(=O)c3cccc(NCc4cccs4)c3C2=O)C(=O)N1 (centres undefined)
23,100 to 101,CC(C)c1ccc(O[C@@H](Cc2ccc(OCCNC(=O)c3ccc(-c4ccccn4)cc3)cc2)C(=O)O)cc1

row,melting point [°C],Compound
1,34 to 36,COC(=O)c1ncccc1Br
2,267 to 290,CC(=O)OCC(=O)Nc1cc(-c2ccncc2)c[nH]c1=O
3,120 to 122,CC(C)(C)C(=O)OCc1nc(-c2ccc3c(c2)Nc2ccccc2S3)cs1
4,141 to 143,O=C(NO)[C@H]1CN(c2ccc(N3CCOCC3)c(F)c2)C(=O)O1
5,74 to 75,CCc1c(Oc2ncc(C(F)(F)F)cc2Cl)n[nH]c1C
6,48 to 49,Cc1cc(OCc2ccccc2)c(C)cc1C=O
7,94 to 96,O=C1CCc2c(Cl)cc(F)cc21
8,201 to 202,O=C(Nc1cccc2c1C(=O)c1c-2n[nH]c1-c1ccc(C(=O)N2CCN(c3ccccn3)CC2)s1)NN1CCOCC1
9,102 to 103,O=C(CC(=O)C(F)F)c1ccc(N2CCOCC2)cc1
10,149 to 151,CCCCc1oc2ccccc2c1-c1ncc(-c2ccc3cc(OCC(=O)OC)ccc3c2)o1
11,128 to 129,COCC(O)COc1ccc2cc(S(N)(=O)=O)sc2c1 (centres undefined)
12,207 to 209,Cc1[nH]cnc1-c1cc(C(C)(C)C)c(O)c(C(C)(C)C)c1
13,131,Cc1nc(-c2ccc(Cl)cc2)sc1C(=O)NCc1ccc(OC(C)(C)C(=O)O)cc1
14,138 to 140,Cn1nnn(-c2c(Cl)ccc(C(=O)C3C(=O)CCCC3=O)c2Cl)c1=O
15,225 to 228,CN(C)C=Cc1cc(-n2cncn2)ncc1[N+](=O)[O-]
16,80 to 82,COC(=O)C(Cc1ccc(OS(=O)(=O)C(F)(F)F)c(OS(=O)(=O)C(F)(F)F)c1)NC(=O)OC(C)(C)C (centres undefined)
17,156 to 159,Cc1noc(NS(=O)(=O)c2cccc3c(NC(C)C)cccc23)c1C
18,148 to 149,Cc1c(OCc2ccccc2)ccc2c(=O)cc(N3CCN(c4ccccn4)CC3)oc12
19,194 to 196,Nc1ccccc1NC(=O)CCN1CCN(c2cccc(C(F)(F)F)c2)CC1
20,76 to 78,CCOC(=O)c1ccc2c(c1)CCC(COS(=O)(=O)c1ccc(C)cc1)C2 (centres undefined)
21,49.5 to 50.5,CCOC(=O)CCc1ccc(OC)c(OCc2ccccc2)c1
22,101 to 102,C=C(C)CNC(=O)N1CC(Oc2ccc(C(F)(F)F)cc2)C1
23,298 to 301,COc1ccc2ccc3nc(C(=O)Nc4nnn[nH]4)cn3c2c1

row,melting point [°C],Compound
1,183 to 186,COc1cc(OCc2ccccn2)ccc1/C=C/C(=O)CC(=O)/C=C/c1c[nH]c2ccc(F)cc12
2,204 to 205,CCCn1c(=O)c(N=O)c(N)n(CCc2ccc([N+](=O)[O-])cc2)c1=O
3,200 to 201,CC1=NC(=CC(=CN(C)C)c2ccc(C)cc2[N+](=O)[O-])C(=O)O1
4,106,COP(=O)(Cc1cc(CP(=O)(OC)OC)cc(CP(=O)(OC)OC)c1)OC
5,107 to 109,CCOC(=O)c1c(C)oc(=O)c(-c2c(C)cc(C)cc2C)c1OC(C)=O
6,37 to 39,CCCCCCCCCCCC(=O)N(N=C=S)C(CCCCN)C(=O)O (centres undefined)
7,133 to 134,CCOC(=O)C1=CC2(CCC1S(=O)(=O)Nc1ccc(F)cc1Cl)OCCS2 (centres undefined)
8,114 to 115,CCOC(=O)C(Cl)=Cc1cc(-n2c(Cl)nc(C(F)(F)F)cc2=O)ccc1Cl
9,216 to 219,COc1ccccc1NC(=O)Nc1nc(Nc2ccccc2-c2ccccc2)nc(N(CCC(=O)O)Cc2ccccc2C(F)(F)F)n1
10,52 to 54,CN1CC(=O)C(C)(C)CC1=O
11,60 to 63,CCc1cn(C(CC)C(=O)N(C)C)nc1-c1ccccc1Cl (centres undefined)
12,139 to 141,C=CCOc1ccccc1N(CC(O)CNC(C)C)S(C)(=O)=O (centres undefined)
13,48 to 58,CCOC(=O)c1sc(CBr)nc1C
14,173,NC(=S)N1CCc2cccnc21
15,123 to 124,Cc1ccc(Cl)c(C2CC(=O)c3c(C)ccnc3C2)c1 (centres undefined)
16,214 to 215,O=C1c2ccccc2C(=O)N1CCCSc1nccc(NC(=S)NCC(F)(F)F)n1
17,223 to 225,COC(=O)CCCCOc1ccc2nc3[nH]c(=O)n(C)c3cc2c1
18,118 to 120,CN1CC(CCCl)Oc2ccc(Br)cc2C1=S (centres undefined)
19,121 to 124,CCCCC1NCCc2ccc(C(=O)N[C@@H](Cc3cc(F)cc(F)c3)[C@H](O)CNCc3cccc(CC)c3)cc21 (some centres undefined)
20,100 to 102,CCOC(=O)C(=CNc1cscc1OC)C(=O)OCC
21,259 to 262,Clc1ccc(-c2ccc3nncn3c2)cc1
22,150,O=[N+]([O-])c1c(NCCCO)cc(NCCCO)cc1NCCCO
23,148 to 150,O=C1OC[C@@H](CF)N1c1nc(-c2ccc(Br)cc2)cs1

row,melting point [°C],Compound
1,> 200,N#Cc1c(N2CCc3ccccc3CC2)nc(N)n(N)c1=O
2,133 to 134,CC(=O)Nc1ccc2c(c1)COCO2
3,118 to 120,NS(=O)(=O)Oc1cc(C(F)(F)F)cc(C(F)(F)F)c1
4,54 to 55,CCCCCCCCCCCCCCC[C@H]1O[C@@H]1C(=O)OC
5,94 to 96,CC(=O)Oc1cc(S(=O)(=O)Oc2ccc(C(=O)c3c(Cc4ccccc4)sc(C)c3C)cc2C2CCCC2)ccc1C(=O)O
6,156 to 158,CCCCCCCCCCCc1cc2ccc(C(=O)O)cc2[nH]1
7,128 to 130,CCc1c(Sc2cc(C)cc(C)c2)n(CC2CC=CC2)c(=O)[nH]c1=O
8,71.5 to 72.5,COCCOc1cc(Cl)cnc1[N+](=O)[O-]
9,138 to 140,O=C(O)CN(Cc1ccccc1)C(=S)CCc1nc2c(F)c(F)cc(F)c2s1
10,225 to 226,COc1ccc(C#Cc2ccc3c(Nc4cc(OC)c(Cl)cc4Cl)c(C#N)cnc3c2)cc1
11,148 to 149,CC1(C)CC(=C(c2ccc(O)cc2)c2ccc(I)cc2)CC(C)(C)C1
12,220 to 222,Cn1cc(C(=O)NCc2ccc(Cl)cc2)c(=O)c2cc(CN3CCOCC3)cc(C#CCN3CCS(=O)(=O)CC3)c21
13,209 to 212,O=S(=O)(CCO)c1ccc(S(=O)(=O)CCO)cc1
14,159 to 160,CC(=O)ON(C)C(=O)CCc1cc(-c2ccc(Cl)cc2)n(-c2nc3c(Cl)cccc3s2)n1
15,192 to 194,C=CCc1c(C)nc(C)c(C(=O)Nc2c(CC)cc(C)cc2CC)c1Cl
16,207 to 214,Cc1c[nH]c(C)c1-c1nc2ccc(C(=O)c3ccccc3)cc2[nH]1
17,217 to 220,CC(O)(C(=O)Nc1ccc(S(=O)(=O)N(c2ccccc2)c2ccccc2)cc1)C(F)(F)F (centres undefined)
18,239 to 240,CC(C)(C)OC(=O)c1ncn2c1cc(C(=O)N1CCNCC1)c1cc(Cl)ccc12
19,> 200,CCc1nc(C)c(/C=C(\NC(=O)c2ccc(C(=O)NCc3cccc(O)c3)cc2Cl)C(=O)OC)s1
20,> 250,CNCC1Cc2cc(-c3ccc(F)cc3)cc(F)c2O1 (centres undefined)
21,96 to 97,CCCCC(=NCC(=O)OCC)c1cc(Cl)ccc1N
22,> 280,Cc1c(F)c(F)cc2c(=O)c(C(=O)O)cn(-c3ccc(F)c(O)c3)c12
23,172 to 173,C(#Cc1ccc(-c2nc3ccccc3s2)cc1)c1ccccc1

row,Compound,melting point [°C]
1,Cc1ccc2c(c1)oc1c(C(=O)NN3CCOCC3)nn(-c3ccc(Cl)cc3Cl)c12,178 to 180
2,COc1ccc(C(=O)O)cc1NC(=O)[C@H](CCCNC(=N)N[N+](=O)[O-])NC(=O)OCc1ccccc1,208 to 209
3,CCC1=Cc2cc3c(cc2C(c2ccc(N)cc2)=NN1C(C)=O)OCO3,136 to 138
4,OC1(CSc2ccc(-c3ccccc3)cc2)CN2CCC1CC2 (centres undefined),145 to 147
5,Cc1ncc([N+](=O)[O-])n1CCN(CCCCCCCCN(CCn1c([N+](=O)[O-])cnc1C)CCn1c([N+](=O)[O-])cnc1C)CCn1c([N+](=O)[O-])cnc1C,157 to 158
6,CC(=O)N1CC(CCN2CC=C(c3ccccc3)CC2)c2ccccc21 (centres undefined),109 to 111
7,CN(C(=O)C1CC1)c1cccc(-c2ccnc3c(C(=O)c4ccccc4)cnn23)c1,168 to 170
